The assay concerns the target Cytosol aminopeptidase (Homo sapiens, UniProt P28838). The experiment in a line: Inhibitory activity against leucine aminopeptidase.

Each structure is given as a SMILES string. pKi: −log10 of the molar value.

Cytosol aminopeptidase, sequence (P28838 whole entry): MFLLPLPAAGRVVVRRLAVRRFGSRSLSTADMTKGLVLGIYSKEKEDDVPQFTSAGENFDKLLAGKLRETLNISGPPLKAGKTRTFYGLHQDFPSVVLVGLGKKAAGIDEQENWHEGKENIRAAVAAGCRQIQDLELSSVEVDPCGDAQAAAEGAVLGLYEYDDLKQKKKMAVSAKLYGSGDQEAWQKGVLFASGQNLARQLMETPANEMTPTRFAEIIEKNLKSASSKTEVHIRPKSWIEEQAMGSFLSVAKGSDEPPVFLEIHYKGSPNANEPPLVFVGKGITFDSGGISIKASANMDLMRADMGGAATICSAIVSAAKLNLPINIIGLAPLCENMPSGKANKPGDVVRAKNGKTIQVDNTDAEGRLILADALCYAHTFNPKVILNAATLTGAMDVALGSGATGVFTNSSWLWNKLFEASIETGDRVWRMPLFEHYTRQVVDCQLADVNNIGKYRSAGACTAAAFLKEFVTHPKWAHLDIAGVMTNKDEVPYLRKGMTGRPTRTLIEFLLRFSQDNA

As a reminder, the pKi is the Ki on a negative log10 scale, so that one unit is a factor of ten. A lower pKi goes with a large Ki. Consider `COC(=O)/C=C\C(=O)[C@@H](N)CC(C)C`, for which the pKi is 7.12.

The values above are taken from ChEMBL document CHEMBL1133220, “Potent new leucine aminopeptidase inhibitor of novel structure synthesised by a modified Wadsworth-Emmons (Horner) Wittig procedure” (Bioorg Med Chem Lett, 2000).
